From US20120165319A1, “INHIBITORS OF INTERLEUKIN-1 BETA CONVERTING ENZYME” (VERTEX PHARMACEUTICALS INCORPORATED, priority 1995, published 2012)

Assays:
ICE [1] = target: T1, ICE (Homo sapiens, UniProt P29466); test: Enzyme assay with UV-visible substrate (visible ICE assay, Succinyl-Tyr-Val-Ala-Asp-pNitroanilide); assay type: biochemical
T1 sequence (P29466 120-297 limits assumed): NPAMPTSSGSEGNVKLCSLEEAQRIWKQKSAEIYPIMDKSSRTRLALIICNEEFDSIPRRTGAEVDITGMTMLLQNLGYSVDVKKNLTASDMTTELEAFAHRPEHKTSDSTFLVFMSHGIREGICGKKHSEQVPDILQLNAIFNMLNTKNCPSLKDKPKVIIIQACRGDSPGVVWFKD
T1 sequence (P29466 317-404 limits assumed): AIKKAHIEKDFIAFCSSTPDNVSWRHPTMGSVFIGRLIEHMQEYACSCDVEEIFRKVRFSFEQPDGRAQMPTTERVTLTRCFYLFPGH
How it was run: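 ICE preincubated with inhibitor in DMSO for 15 min at room temperature, then Suc-Tyr-Val-Ala-Asp-pNA added. pNA release read at 405-603 nm for 20 min at 37 °C, rate from linear fit in mOD/min. Ki and inhibition mode from fits of rates at varying inhibitor concentrations to standard kinetic equations.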

[2] = system: IL-1β, human peripheral blood mononuclear cells (PBMC); test: PBMC cell assay: IL-1β assay with human PBMC or enriched adherent mononuclear cells, LPS-stimulated; assay type: cell-based; details: Homo sapiens, PBMC
How it was run: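 Mature IL-1β is measured by ELISA in supernatants after 16–18 hr at 37 °C, 5% CO2, with LPS (5 ng/ml final) and test compound (0.1% DMSO final). Cells are human PBMC (6×10^6 cells/ml) or plate-adherent mononuclear cells (2.5−3.0×10^5 per well), and the 5–6 compound concentrations span the ICE Ki.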

[3] = Pharmacokinetic studies in the mouse (i.v. clearance, plasma levels); assay type: in vivo; details: CD-1, plasma, iv, mouse, 25 mg/kg
Method: Pharmacokinetic Studies in the Mouse
Sample Preparation and Dosing
Compounds were dissolved in sterile TRIS solution (0.02M or 0.05M) at a concentration of 2.5 mg/ml. Where necessary to ensure a complete solution, the sample was first dissolved in a minimum of dimethylacetamide (maximum of 5% of total solution volume) then diluted with the TRIS solution.
The drug solution was administered to CD-1 mice (Charles River Laboratories—26-31 g) via the tail vein at a dose volume of 10 ml/kg giving a drug dose of 25 mg/kg.
Mice were dosed in groups of 5 for each timepoint (generally from 2 minutes to 2 hours) then at the appropriate time the animals were anaesthetised with halothane and the blood collected into individual heparinized tubes by jugular severance. The blood samples were cooled to 0° C. then the plasma separated and stored at −20° C. until assayed.
Drug concentration in the plasma samples were determined by HPLC analysis with UV or MS (ESP) detection. Reverse phase chromatography was employed using a variety of bonded phases from C1 to C18 with eluents composed of aqueous buffer/acetonitrile mixtures run under isocratic conditions.
Quantitation was by external standard methods with calibration curves constructed by spiking plasma with drug solutions to give concentrations in the range of 0.5 to 50 μg/ml.
Prior to analysis the plasma samples were deproteinated by the addition of acetonitrile, methanol, trichloroacetic acid or perchloric acid followed by centrifugation at 10,000 g for 10 minutes. Sample volumes of 20 μl to 50 μl were injected for analysis.
The drug was dissolved in sterile 0.02M Tris to give a 2.5 mg/ml solution which was administered to […] of 5 male CD-1 mice via the tail vein at a dose of 25 mg/kg. At each of the following timepoints: 2, 5, 10, 15, 20, 30, 45, 60, 90 and 120 minutes a group of animals was anaesthetised and the blood collected into heparinized tubes. After separation the plasma was stored at −20° C. until assayed.
Aliquots of plasma (150 μl) were treated with 5% perchloric acid (5 μl) then mixed by vortexing and allowed to stand for 90 minutes prior to centrifugation. The resulting supernatant was separated and 20 μl was injected for HPLC analysis.
Aliquots of plasma (100 μl) were diluted with acetonitrile (100 μl) then mixed by vortexing for 20 seconds before centrifugation for 10 minutes. The resulting supernatant was separated and 20 μl was injected for HPLC analysis.

IL-1β, human whole blood = test: Whole blood assay for IL-1β production; assay type: cell-based; details: Homo sapiens, * = values obtained upon reassay; read-out: Whole human blood IC50
How it was run: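 IL-1β was quantified by ELISA in plasma diluted 1:200. The plasma came from EDTA-anticoagulated human whole blood incubated at 30 °C for 16-18 h with LPS (final 5.0 ng/ml) plus a saline serial dilution of compound. Controls were no-LPS, no-inhibitor and highest-vehicle.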

ICE [4] = target: T1, ICE; test: Enzyme assay with fluorescent substrate (Acetyl-Tyr-Val-Ala-Asp-AMC); Ki and second order rate constants kinact; assay type: biochemical
Method: 2. Enzyme Assay with Fluorescent Substrate
This assay is run essentially according to Thornberry et al. (Nature 356: 768-774 (1992)), using substrate 17 referenced in that article. The substrate is: Acetyl-Tyr-Val-Ala-Asp-amino-4-methylcoumarin (AMC). The following components are mixed:
The assay is run in a 96 well microtiter plate. Buffer and ICE are added to the wells. The components are left to incubate at 37° C. for 15 minutes in a temperature-controlled wellplate. After the 15 minute incubation, the reaction is started by adding substrate directly to the wells and the reaction is monitored @37° C. for 30 minutes by following the release of the AMC fluorophore using an excitation wavelength for 380 nm and an emission wavelength of 460 nm. A linear fit of the data for each well is performed and a rate is determined in fluorescence units per second.
For determination of enzyme inhibition constants (Ki) or the mode of inhibition (competitive, uncompetitive or noncompetitive), the rate data determined in the enzyme assays at varying inhibitor concentrations are computer-fit to standard enzyme kinetic equations (see I. H. Segel, Enzyme Kinetics, Wiley-Interscience, 1975).
The determination of second order rate constants for irreversible inhibitors was performed by fitting the fluorescence vs time data to the progress equations of Morrison. Morrison, J. F., Mol. Cell. Biophys., 2, pp. 347-368 (1985). Thornberry et al. have published a description of these methods for measurement of rate constants of irreversible inhibitors of ICE. Thornberry, N. A., et al. Biochemistry, 33, pp. 3923-3940 (1994). For compounds where no prior complex formation can be observed kinetically, the second order rate constants (kinact) are derived directly from the slope of the linear plots of kobs vs. [I]. For compounds where prior complex formation to the enzyme can be detected, the hyperbolic plots of kobs vs. [I] are fit to the equation for saturation kinetics to first generate Ki and k′. The second order rate constant kinact is then given by k′/Ki.
(§1) The selectivity of a panel of reversible inhibitors for ICE homologs is depicted in Table 1. ICE enzyme assays were performed according to Wilson et al (supra 1994) using a YVAD-AMC substrate (Thornberry et al, supra 1992). Assay of TX activity was performed using the ICE substrate under identical conditions to ICE. Assay of CPP32 was performed using a DEVD-AMC substrate (Nicholson et al., supra 1995). In general, there is low selectivity between ICE and TX for a wide range of scaffolds. None of the synthetic ICE compounds tested are effective inhibitors of CPP32.
(§2) Second-order rate constants for inactivation of ICE and ICE homologs with selected irreversible inhibitors are presented below (Table 2). The irreversible compounds studied are broad spectrum inhibitors of ICE and its homologs. Some selectivity, however, is observed with the irreversible compounds comparing inhibition of ICE and CPP32.

TX = target: T2, TX (Homo sapiens, UniProt P49662); test: Inhibition of ICE homologs: TX; assay type: biochemical; details: second-order rate constant for inactivation, irreversible inhibitors (Table 2)
T2 construct: made in house; host or cells: Spodoptera frugiperda (Sf9) insect cells, recombinant baculovirus (pVL1393/TX)
T2 sequence (P49662 81-270 limits assumed): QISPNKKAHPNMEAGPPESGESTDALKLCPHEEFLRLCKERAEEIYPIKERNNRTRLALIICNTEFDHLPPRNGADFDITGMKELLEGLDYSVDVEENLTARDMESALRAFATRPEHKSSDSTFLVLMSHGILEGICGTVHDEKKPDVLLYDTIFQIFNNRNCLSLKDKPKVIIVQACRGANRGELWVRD
T2 sequence (P49662 290-377 limits assumed): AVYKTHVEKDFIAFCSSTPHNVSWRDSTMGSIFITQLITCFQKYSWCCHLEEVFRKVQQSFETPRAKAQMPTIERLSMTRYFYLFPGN
Excerpt: Expression of TX in insect cells using a baculovirus expression system. We have subcloned Tx cDNA (Faucheu et al., supra 1995) into a modified pVL1393 transfer vector, co-transfected the resultant plasmid (pVL1393/TX) into insect cells with viral DNA and identified the recombinant baculovirus. After the generation of high titer recombinant virus stock, the medium was examined for TX activity using the visible ICE assay. […] ICE was used as a standard in the assay.
as §1, §2

U937 cells = test: Fas-induced apoptosis in U937 cells; details: Homo sapiens, U-937, read-out: Inhibition of apoptosis
Method: Fas-Induced Apoptosis in U937 cells. Compounds were evaluated for their ability to block anti-Fas-induced apopotosis. […] We used this cell line for apoptosis studies. U937 cells were seeded in culture at 1×10^5 cells/ml and grown to ˜5×10^6 cells/ml. For apoptosis experiments, 2×10^6 cells were plated in 24-well tissue culture plates in 1 ml RPMI-1640-10% FBS and stimulated with 100 ng/ml anti-Fas antigen antibody (Medical and Biological Laboratories, Ltd.). After a 24 hr incubation at 37° C., the percentage of apoptotic cells was determined by FACS analysis using ApoTag reagents.

## O=C[C@H](CCC(=O)O)NC(=O)[C@@H]1CCCN2C(=O)CC[C@H](NC(=O)c3ccccc3)C(=O)N12 [Compound 235e, [4S,(1S,9S)]-4-[9-(Benzoylamino)-6,10-dioxo-1,2,3,4,7,8,9,10-octahydro-6H-pyridazino-[1,2-a][1,2]diazepine-1-carboxamido]-5-oxopentanoic acid]
ICE [1]; Table 5
  Ki: 0.51 µM
[2]; * = values obtained upon reassay
  IC50: 4.75 µM
[3]
  clearance: 36 mL/min/kg
other
  melting point: 142 °C (dec.)

## O=C[C@H](CC(=O)O)NC(=O)[C@@H]1CCCN2CCC[C@H](NC(=O)CCc3ccccc3)C(=O)N12 [Compound 47b, [3S(1S,9S)]3-(Octahydro-10-oxo-9-(3-phenylpropionylamino)-6H-pyridazino-[1,2-a][1,2]diazepine-1-carboxamido)-4-oxobutanoic acid]
IL-1β, human whole blood
  IC50: < 0.6 µM
[3]
  clearance: 338 mL/min/kg
other
  melting point: 87 to 90 °C

## O=C(O)C[C@H](NC(=O)CN1C(=O)[C@@H](NC(=O)CCc2ccccc2)CN(C(=O)CCc2ccccc2)c2ccccc21)C(=O)COC(=O)c1c(Cl)cccc1Cl [Compound 108a, 2,6-Dichlorobenzoic acid 4-carboxy-2-oxo-3(S)-{2-[2-oxo-5-(3-phenylpropionyl)-3(S)-(3-phenylpropionylamino)-2,3,4,5-tetrahydrobenzo[b][1,4]diazepin-1-yl]acetylamino}butyl ester]
ICE [4]; Table 6
  Fluorescent Assay kinact: 1 × 10^5 m^−1 s^−1
ICE [4]; second-order rate constant for inactivation, irreversible inhibitors (Table 2)
  kinact (ICE): 100,000 M^−1 s^−1
TX
  kinact (TX): 25,000 M^−1 s^−1
U937 cells
  inhibition at 20 µM: > 75%

## O=C[C@H](CC(=O)O)NC(=O)[C@@H]1CCCN2CCC[C@@H](NC(=O)c3ccccc3)C(=O)N12 [Compound 246b, [3S(1S,9R)]3-(9-Benzoylamino-1,2,3,4,7,8,9,10-octahydro-10-oxo-6H-pyridazino[1,2-a][1,2]diazepine-1-carboxamido)-4-oxobutanoic acid]
ICE [1]; Table 17
  Ki: 30 µM
[2]; Table 17
  IC50: > 30 µM
[3]; Table 17
  clearance: 87 mL/min/kg
other
  melting point: 115 to 119 °C
